Consider 2 compounds from PMC1166555, “The therapeutic effect of the neuropeptide hormone somatostatin on Schistosoma mansoni caused liver fibrosis” (BMC Infectious Diseases, 2005).

Read-outs that look alike come from different tables or passages of the source.

A short description of data set [1]: Pharmacokinetic profile of somatostatin in outbred Swiss mice (plasma, RIA). In kind it is in vivo. The following applies: male Swiss mice; for level at 10 min: Swiss (outbred), 25 ug per mouse, 10 minutes post injection, plasma. The procedure: Separate groups of male Swiss mice were injected with 25 μg of somatostatin (somatostatin-ucb®, UCB Pharma, Brussels) intraperitoneally (in the abdomen) or intravenously (in the caudal vein in the tail). At defined moments after injection (10, 20, 40, 60 minutes) the animals were anaesthetized with Nembutal® (60 mg/kg). The thoracic cavity was cut open and blood collected from the right ventricle of the heart into chilled syringes containing EDTA (1 mg/ml) and Aprotinin (500 KIU/ml blood). The collected blood was centrifuged at 3000 rpm for 15 minutes at 0°C. The plasma was immediately frozen at -80°C freezer. Untreated naïve mice were also bled to ascertain background levels of somatostatin.
(§1) The measurement of somatostatin concentrations in the Swiss mice plasma was carried out in the laboratory of Gastro-intestinal Hormones, at Gasthuisberg, K.U. Leuven, by means of a radio-immuno assay (RIA). The RIA was performed by incubating the samples with 1.7 pM 3-[^125I] iodotyrosyl^11 somatostatin-14 (specific activity 2000 Ci/mmol, Amersham Pharmacia Biotech, Buckinghamshire, UK) and a rabbit antibody against human SOM [1-14] in a 50 mM sodium phosphate buffer (pH 7.4, 0.25% EDTA, 0.5% charcoal-BSA, 500 U/ml Trasylol) for at least two days at 4°C. At the end of the incubation period the SOM bound to the antibody was separated from the free SOM by adding 500 μl dextran-charcoal followed by centrifugation for 15 min at 3000 rpm. Both fractions were counted in a gamma counter and the results were read from a standard curve (0–250 pg/ml) included in the RIA. The minimal detectable dose was 2.5 pg/ml.
Somatostatin has a very short half-life of 1–3 minutes in man. […] To determine the pharmacokinetic profile in outbred Swiss mice, 25 μg of somatostatin was administered per mouse via the intraperitoneal or intravenous route. To assess the break down in these mice, plasma was collected at regular time intervals and circulating somatostatin levels assayed (Figure 2). At 10 minutes post injection somatostatin levels fall to 30233 pg/ml (IP) and 17413 pg/ml (IV).

The nature of data set [2]: Circulating somatostatin levels in plasma at sacrifice, one week after therapy (RIA). In kind it is in vivo, Swiss mice. The following applies: for level at 168 h: Swiss, mouse, plasma. The protocol:
(§2) Groups of Swiss mice were infected with 100 S. mansoni cercariae each as mentioned above. Age matched mice were maintained as uninfected control animals. Groups of 10 mice composed Group 1 that were maintained till 10 weeks following infection, other 10 mice composed Group 2 that were maintained till 14 weeks of infection.
(§3) At such times animals of Groups 1 and 2 were treated with somatostatin (Somatostatine-ucb®), that was kindly gifted by UCB Pharma, Brussels. Somatostatin was administered in two regimens – a one-day treatment or a two-day treatment. One day treatment consisted of 3 doses of 30 μg somatostatin each, two day treatment was the double of this dose, that is 6 doses of 30 μg somatostatin to each animal. Somatostatin was administered intravenously via the caudal vein in the tail and intraperitoneally at regular intervals during the day. One week after the last somatostatin administration, mice were killed, the weight of the animal, liver and spleen were noted, plasma was extracted and stored as mentioned above, and the liver frozen immediately in liquid nitrogen and then at -80°C. The overall planning is depicted in Table 1. Untreated animals of the acute and chronic stage were also sacrificed at the respective times together with their treated counterparts. Research protocols involving rodents received ethical clearance by the University of Antwerp ethical committee.
as §1

Data set [3] in a line: Liver, spleen and total body weight after somatostatin treatment. In kind it is in vivo, Swiss mice. The procedure: as §2, §3
All animals of Groups I and II were controlled for liver, spleen and total body weight, before sacrifice. The adult worms were recovered from the hepatic portal system and the liver by perfusion with citrate saline (0.85% sodium chloride; 1.5% sodium citrate). The livers were cut out and snap frozen in liquid nitrogen. For cyosectioning, liver fragments were embedded in Tissue-Tek OCT compound, 4 μm thick transverse sections were cut on a cryostat, mounted on slides coated with 0.1% ploy-L-lysine and stored at -20°C until use. To study parasite egg count, hepatocyte status, granuloma size and cellularity, series of sections were stained with Haematoxylin-eosin stain.

Data set [4] can be described thus: Toxicity of somatostatin administration in the study mice. It is filed as in vivo. Particulars: Swiss mice, 90 μg/24 hours, mice about 40 g. The protocol: as §3
The favorable metabolic profile of somatostatin is further supported by the fact that this compound has a very short half-life, and thus any undesirable effects may be rapidly reversed. In our experiment we have used 90 μg/24 hours in the Swiss mice that weighs about 40 g. […]

The conditions of data set [5]: cited from earlier work.
For data set [6] the following is noted: dogs, animal studies; cited from earlier work. The protocol:
Somatostatin has a very short half-life of 1–3 minutes in man. […] To determine the pharmacokinetic profile in outbred Swiss mice, 25 μg of somatostatin was administered per mouse via th ...

The conditions of data set [7]: rats; cited from earlier work.
For data set [8] the following is noted: studies in mice; cited from earlier work. The procedure: The favorable metabolic profile of somatostatin is further supported by the fact that this compound has a very short half-life, and thus any undesirable effects may be rapidly reversed. In our experiment we have used 90 μg/24 hours in the Swiss mice that weighs about 40 g. In humans the therapeutic dose is 3.5 μg/kg/hour or 6 mg/24 h for a 75 kg person. A comparison of these values tells ...

A further data set deals with S. mansoni. Particulars: S. mansoni infected animals; cited from earlier work. The source says: Taken together we have elucidated the therapeutic capacity of somatostatin in reducing hepatic fibrosis. This report in fact confirms a previous report by Mansy, where using a somatostatin synthetic analog octreotide in S. mansoni infected animals, a reduction in hepatic fibrosis was noted. Since octreotide is limited in binding to somatostatin receptors, our results with natural somatostatin that binds to all 5 somatostatin receptors equally well assures us of the anti fibrotic capacities of this neuropeptide hormone, and points to its potential use in human conditions.

Setting [9] is: acute (wk 10) infected mice, 1 day SOM treatment, one week post treatment, RIA, untreated 297.3 ± 37.24.
The mark [10] stands for this setting: acute (wk 10) infected mice, 2 day SOM treatment, one week post treatment, RIA, untreated 297.3 ± 37.24, p = 0.28.
[11] abbreviates: chronic (wk 14) infected mice, 1 day SOM treatment, one week post treatment, RIA, untreated 206.1 ± 13.30.
Setting [12] is: chronic (wk 14) infected mice, 2 day SOM treatment, one week post treatment, RIA, untreated 206.1 ± 13.30, p = 0.06 (BL).
Where [13] appears, read: uninfected mice (17 wks.), 2 day SOM treatment, Group 1, RIA.
The mark [14] stands for this setting: uninfected mice (21 wks.), 2 day SOM treatment, Group 2, RIA.

What is called half-life is the time in which the quantity being followed falls by half. For `C[C@H](N)C(=O)NCC(=O)N[C@H]1CSSC[C@@H](C(=O)O)NC(=O)[C@H](CO)NC(=O)[C@H]([C@@H](C)O)NC(=O)[C@H](Cc2ccccc2)NC(=O)[C@H]([C@@H](C)O)NC(=O)[C@H](CCCCN)NC(=O)[C@H](Cc2c[nH]c3ccccc23)NC(=O)[C@H](Cc2ccccc2)NC(=O)[C@H](Cc2ccccc2)NC(=O)[C@H](CC(N)=O)NC(=O)[C@H](CCCCN)NC1=O` [somatostatin], the level at 10 min in data set [1] (ip, 25 μg somatostatin per mouse intraperitoneally, read-out: circulating somatostatin level in plasma at 10 minutes post injection (IP)) was found to be 30.2 ng/mL; in [1] (iv, 25 μg somatostatin per mouse intravenously (caudal vein), read-out: circulating somatostatin level in plasma at 10 minutes post injection (IV)), 17.4 ng/mL. Moreover, the “circulating somatostatin level after one hour of injection” value in data set [1] (25 μg per mouse, IP or IV, one hour after injection) is on record as “reaches baseline control levels”. Further, the level at 168 h was found to be 0.24 ± 0.0213 ng/mL in data set [2] (setting [9]); 0.234 ± 0.0236 ng/mL in data set [2] (setting [10]); 0.226 ± 0.00541 ng/mL in data set [2] (setting [11]); 0.248 ± 0.0131 ng/mL in data set [2] (setting [12]); 0.137 ± 0.0117 ng/mL in data set [2] (setting [13]); 0.152 ± 0.0415 ng/mL in data set [2] (setting [14]). In [2] (uninfected mice, 1 day SOM treatment, Group 2, RIA), this compound displayed a level at 168 h of 0.132 ± 0.0193 ng/mL. Moreover, the “somatostatin level in plasma” value was 240.3 pg/mL in data set [2] (setting [9]); 234.2 pg/mL in [2] (setting [10]); 226.3 pg/mL in data set [2] (setting [11]); 247.9 pg/mL in data set [2] (setting [12]); 136.9 pg/mL in [2] (setting [13]); 151.6 pg/mL in data set [2] (setting [14]). For the same compound, the “change in liver weight” value in data set [3] (acute and chronic infected animals after 2 days of somatostatin treatment vs untreated, p = 0.19, 0.90) was “no significant change”. Further, in data set [3] (acute and chronic infected animals after 2 days somatostatin treatment vs untreated, p = 0.28, 0.73), the “change in spleen weight” value is “no significant changes”. Also, in [3] (acute or chronic infected animals after somatostatin treatment), the “change in total body weight” value is recorded as “no significant changes”. Also, the “toxicity of somatostatin administration” value in data set [4] is “little toxicity”. For the same compound, the “time to reach plasma plateau” value in data set [5] (healthy volunteers, intravenous infusion 250 μg/hour or 6 mg/24 hours) was no more than 15 min. The plasma plateau level in [5] (healthy volunteers, intravenous infusion of therapeutic dose (250 μg/hour or 6 mg/24 hours)) was 300 to 3000 pg/mL. Also, the half-life in data set [5] (in man) is 1 to 3 min. Also, the “plasma profile / half-life compared with man” value in data set [6] is on record as “same profile”. In data set [7], the “time stable in whole blood” value is given as “up to 30 minutes”. Moreover, in [8], the LD50 is reported as ~10,000 times the acute therapeutic dose used in humans.
Regarding octreotide, the hepatic fibrosis result in the data set with S. mansoni is reported as “reduction”.
